Results from US10324079B2, “Method for rapid testing allergy” (priority 2013, dated 2019).

Assays:
Assay type in all cases: cell-based, human
[1] = system: leukocytes of the patient; test: LMT (leukocyte migration test); details: positive with MI value > 150 and p < 0.05
Experimental: (§1) The patient having the typical allergy-like symptom (skin lesion) and the atypical patient were tested by the three different methods, namely the DLST, which is widely used for clinical tests, the LMT, which is sometimes reported more accurate than the DLST, and the present method, and then the results were compared. […] The typical case was determined as negative though the patient clearly developed the skin symptom of the toxic epidermal necrolysis (TEN) according to the clinical presentation and the clinical course.

[2] = system: lymphocytes of the patient; test: DLST (drug-induced lymphocyte stimulation test)
Experimental: as §1

[3] = system: Peripheral blood Mononuclear cells (PBMC) of patient #3; leukocytes of a healthy volunteer as chemotactic cells; test: Migration of healthy-volunteer leukocytes toward reactive solution of patient #3 mononuclear cells stimulated with suspected drug (Example 3); details: for Velocity (judgment of migration velocity, % of control) / Distance (judgment of migration distance, % of control): patient #3 PBMC + serum, 72 h, suspected drugs at ½ of Cmax, PHA 1 μg/ml, relative to PHA-stimulated reactive solution; for chemotaxis or migration ability of the chemotactic cells (FIG. 5A): images recorded for 20 minutes
Experimental: Leukocytes including granulocytes such as neutrophils were separated from heparinized blood of a healthy volunteer who had no allergic symptom by the density gradient centrifugation (Lymphocyte (Registered Trademark)—poly: CEDARLANE Labs. Ltd., Ontario, Canada) in accordance with a conventional method, and suspended in 5 ml of a culture medium (RPMI 1640: Sigma-Aldrich, MO, USA). After culturing the cells in a CO2 incubator at 37° C. for 1 hour the cells was adjusted to the concentration of about 5×10^5 cells/ml and used as chemotactic cells.
The chemotactic cells were injected into the lower well in the holder of EZ-TAXIScan™ (GE Healthcare, Tokyo) at about 5 μl/well, and were drawn to the end of the observation terrace by suction. Subsequently, the serum was injected into the upper well at 1.5 μl/well with a microsyringe to create a concentration gradient on the observation terrace, and images of the chemotactic cells on the observation terrace were sequentially recorded. The depth of the terrace was 4 μm.
The kinetics of the chemotactic cells migrating on the observation terrace was analyzed with software for processing images, ImageJ (NIH, MD, USA). Various parameters concerned with chemotaxis or migration ability of the cell toward the serum such as velocity, distance and direction of the migration were calculated. The statistical analysis was performed using GraphPad Prism (Registered Trademark) (GraphPad Software, CA, USA).
A drug solution was prepared by dissolving a drug in a Hank's balanced salt solution (HBSS: Sigma-Aldrich) if the drug was a solid preparation such as a soluble tablet or a powder. If the drug was poorly soluble, it was dissolved in Dimethyl-sulfoxide (DMSO: Sigma-Aldrich) and the solution was diluted with HBSS so that the final concentration of DMSO was 1% or less. A solution containing the drug solution and the serum of the patient in a ratio of 1:1 was used as a solution of the antigenic drug. The concentrations of the suspected drugs were set to ½ of the Cmax in principle. The concentration of phytohemagglutinin (PHA: Wako Pure Chemical Industries, Ltd., Osaka), a control antigen for stimulating or activating the lymphocytes, was set to 1 μg/ml.
Peripheral blood Mononuclear cells (PBMC) were separated from heparinized blood of the patient by density gradient centrifugation (Lymphoprep™: Axis-Shield PoC, Oslo, Norway) in a conventional manner, washed with HBSS, and then adjusted to the concentration of about 5×10^6 cells/ml with a culture medium for reaction (RPMI 1640 containing 10% horse serum (Invitrogen, CA, USA)).
A mixture of the suspension of the mononuclear cells and the solution of the antigenic drug in a ratio of 4:1 was reacted in a CO2 incubator at 37° C. for 72 hours, and the supernatant was used as a reactive solution stimulated with the antigen. PHA (a), gasmotin (b), dogmatyl (c), pariet (d) and DMSO (e) were used as the antigen.
The cell kinetics was measured in the substantially same manner as in Example 1 excepting that the reactive solution stimulated with the antigen was injected into the upper well in place of the serum.

[4] = patient #3, vs other suspected drugs and solvent (c, d and e), p<0.05

Compound | LMT (MI value) ([1]; Patient A) | Velocity (judgment of migration velocity, % of control) [3] | chemotaxis or migration ability of the chemotactic cells (FIG. 5A) ([3]; patient #3) | Distance (judgment of migration distance, % of control) [3] | other results
CCC(C)n1ncn(-c2ccc(N3CCN(c4ccc(OCC5COC(Cn6cncn6)(c6ccc(Cl)cc6Cl)O5)cc4)CC3)cc2)c1=O (stereo not shown) [Itraconazole] |  |  |  |  | LMT (MI value) ([1]; Patient B, test 2): 135.5; DLST (SI value) ([2]; Patient B, test 1, positive with SI value > 180): 151; DLST (SI value) ([2]; Patient B, test 2, positive with SI value > 180): 90
CO/N=C(\C(=O)N[C@@H]1C(=O)N2C(C(=O)O)=C(C[N+]3(C)CCCC3)CS[C@H]12)c1csc(N)n1 [Maxipime] | 88.21 |  |  |  | DLST (SI value) ([2]; Patient A, positive with SI value > 180): 112
CCN1CCCC1CNC(=O)c1cc(S(N)(=O)=O)ccc1OC (stereo not shown) [dogmatyl, Sulpride] |  | +/− (80~90) |  |  | 
COCCCOc1ccnc(C[S+]([O-])c2nc3ccccc3[nH]2)c1C (stereo not shown) [pariet, Rabeprazole sodium] |  | + (90~120) |  |  | 
Mosapride citrate hydrate [gasmotin] |  | ++ (>120) | rapid migration of the chemotactic cells in the positive direction of the density gradient | ++ (>120) | migration distance (FIG. 5C) [3, 4]: significantly larger; migration velocity (FIG. 5B) [3, 4]: significantly larger
phytohemagglutinin [PHA] | 154.87 | + (90~120) | weaker than that induced with (b) but stronger than those induced with the other suspected drugs | + (90~120) | LMT (MI value) ([1]; Patient B): 283.9; DLST (SI value) ([2]; Patient A, class symbol): + (Positive with *SI value > 180 (DLST)); DLST (SI value) ([2]; Patient B, class symbol): + (Positive with *SI value > 180 (DLST))
